Measurements: ChEMBL document CHEMBL3596165, “Synthesis, structure elucidation and identification of antiproliferative activities of a novel class of thiophene bioisosteres bearing the privileged 7,8-dihydroimidazo[2,1-c][1,2,4]triazin-4(6H)-one scaffold” (Bioorg Med Chem, 2015)
Active and inactive are the calls of the source. The calls are words filed in the database; no cut-off is given here.

Legend:
A549 [1] = experiment: Antiproliferative activity against human A549 cells at 100 ug/ml after 24 hrs by BrdUrd incorporation assay; assay type: functional; details: A549, 24 h, read-out: GI
HeLa [2] = experiment: Antiproliferative activity against human HeLa cells at 100 ug/ml after 48 hrs by BrdUrd incorporation assay; assay type: functional; details: read-out: GI
Vero [3] = experiment: Antiproliferative activity against African green monkey Vero cells at 100 ug/ml after 24 hrs by BrdUrd incorporation assay; assay type: cell-based; details: chlorocebus sabaeus
A549 [4] = experiment: Antiproliferative activity against human A549 cells at 100 ug/ml after 72 hrs by BrdUrd incorporation assay; assay type: functional; details: A549, 72 h, read-out: GI
HeLa [5] = experiment: Antiproliferative activity against human HeLa cells at 100 ug/ml after 24 hrs by BrdUrd incorporation assay; assay type: functional; details: read-out: GI
[6] = Antiproliferative activity against African green monkey Vero cells at 100 ug/ml after 72 hrs by BrdUrd incorporation assay; assay type: cell-based; details: chlorocebus sabaeus, read-out: GI
T47D [7] = experiment: Antiproliferative activity against human T47D cells at 100 ug/ml after 48 hrs by BrdUrd incorporation assay; assay type: functional; details: read-out: GI
T47D [8] = experiment: Antiproliferative activity against human T47D cells at 100 ug/ml after 24 hrs by BrdUrd incorporation assay; assay type: functional; details: read-out: GI
HeLa [9] = experiment: Antiproliferative activity against human HeLa cells at 100 ug/ml after 72 hrs by BrdUrd incorporation assay; assay type: functional; details: read-out: GI
A549 [10] = experiment: Antiproliferative activity against human A549 cells at 100 ug/ml after 48 hrs by BrdUrd incorporation assay; assay type: functional; details: A549, 48 h, read-out: GI
[11] = Antiproliferative activity against African green monkey Vero cells at 100 ug/ml after 48 hrs by BrdUrd incorporation assay; assay type: cell-based; details: chlorocebus sabaeus, read-out: GI
T47D [12] = experiment: Antiproliferative activity against human T47D cells at 100 ug/ml after 72 hrs by BrdUrd incorporation assay; assay type: functional; details: read-out: GI
[13] = Antiproliferative activity against African green monkey Vero cells at 50 ug/ml after 48 hrs by BrdUrd incorporation assay; assay type: cell-based; details: chlorocebus sabaeus, read-out: GI
Vero [14] = experiment: Antiproliferative activity against African green monkey Vero cells after 48 hrs by BrdUrd incorporation assay; assay type: cell-based; details: Chlorocebus sabaeus
TOV112D [15] = experiment: Antiproliferative activity against human TOV112D cells after 48 hrs by BrdUrd incorporation assay; assay type: functional, cell-based
HeLa [16] = experiment: Antiproliferative activity against human HeLa cells after 72 hrs by BrdUrd incorporation assay; assay type: functional, cell-based
HeLa [17] = experiment: Antiproliferative activity against human HeLa cells after 48 hrs by BrdUrd incorporation assay; assay type: functional, cell-based
HeLa [18] = experiment: Antiproliferative activity against human HeLa cells at 50 ug/ml after 72 hrs by BrdUrd incorporation assay; assay type: functional; details: read-out: GI
T47D [19] = experiment: Antiproliferative activity against human T47D cells after 72 hrs by BrdUrd incorporation assay; assay type: functional, cell-based
HeLa [20] = experiment: Antiproliferative activity against human HeLa cells after 24 hrs by BrdUrd incorporation assay; assay type: functional, cell-based
A549 [21] = experiment: Antiproliferative activity against human A549 cells after 48 hrs by BrdUrd incorporation assay; assay type: functional, cell-based; details: A549, 48 h
TOV112D [22] = experiment: Antiproliferative activity against human TOV112D cells at 50 ug/ml after 24 hrs by BrdUrd incorporation assay; assay type: functional; details: read-out: GI
TOV112D [23] = experiment: Antiproliferative activity against human TOV112D cells at 50 ug/ml after 48 hrs by BrdUrd incorporation assay; assay type: functional; details: read-out: GI
A549 [24] = experiment: Antiproliferative activity against human A549 cells after 72 hrs by BrdUrd incorporation assay; assay type: functional, cell-based; details: A549, 72 h
TOV112D [25] = experiment: Antiproliferative activity against human TOV112D cells after 24 hrs by BrdUrd incorporation assay; assay type: functional, cell-based
TOV112D [26] = experiment: Antiproliferative activity against human TOV112D cells after 72 hrs by BrdUrd incorporation assay; assay type: functional, cell-based
A549 [27] = experiment: Antiproliferative activity against human A549 cells at 50 ug/ml after 72 hrs by BrdUrd incorporation assay; assay type: functional; details: A549, 72 h, read-out: GI
Vero [28] = experiment: Antiproliferative activity against African green monkey Vero cells at 50 ug/ml after 24 hrs by BrdUrd incorporation assay; assay type: cell-based; details: chlorocebus sabaeus
Vero [29] = experiment: Antiproliferative activity against African green monkey Vero cells after 24 hrs by BrdUrd incorporation assay; assay type: cell-based; details: chlorocebus sabaeus
HeLa [30] = experiment: Antiproliferative activity against human HeLa cells at 50 ug/ml after 24 hrs by BrdUrd incorporation assay; assay type: functional; details: read-out: GI
T47D [31] = experiment: Antiproliferative activity against human T47D cells after 48 hrs by BrdUrd incorporation assay; assay type: functional, cell-based
A549 [32] = experiment: Antiproliferative activity against human A549 cells at 50 ug/ml after 48 hrs by BrdUrd incorporation assay; assay type: functional; details: A549, 48 h, read-out: GI
T47D [33] = experiment: Antiproliferative activity against human T47D cells at 50 ug/ml after 72 hrs by BrdUrd incorporation assay; assay type: functional; details: read-out: GI
T47D [34] = experiment: Antiproliferative activity against human T47D cells at 50 ug/ml after 48 hrs by BrdUrd incorporation assay; assay type: functional; details: read-out: GI
A549 [35] = experiment: Antiproliferative activity against human A549 cells after 24 hrs by BrdUrd incorporation assay; assay type: functional, cell-based; details: A549, 24 h
[36] = Antiproliferative activity against African green monkey Vero cells at 50 ug/ml after 72 hrs by BrdUrd incorporation assay; assay type: cell-based; details: chlorocebus sabaeus, read-out: GI
A549 [37] = experiment: Antiproliferative activity against human A549 cells at 50 ug/ml after 24 hrs by BrdUrd incorporation assay; assay type: functional; details: A549, 24 h, read-out: GI
T47D [38] = experiment: Antiproliferative activity against human T47D cells after 24 hrs by BrdUrd incorporation assay; assay type: functional, cell-based
T47D [39] = experiment: Antiproliferative activity against human T47D cells at 50 ug/ml after 24 hrs by BrdUrd incorporation assay; assay type: functional; details: read-out: GI
TOV112D [40] = experiment: Antiproliferative activity against human TOV112D cells at 50 ug/ml after 72 hrs by BrdUrd incorporation assay; assay type: functional; details: read-out: GI
Vero [41] = experiment: Antiproliferative activity against African green monkey Vero cells after 72 hrs by BrdUrd incorporation assay; assay type: cell-based; details: Chlorocebus sabaeus
HeLa [42] = experiment: Antiproliferative activity against human HeLa cells at 50 ug/ml after 48 hrs by BrdUrd incorporation assay; assay type: functional; details: read-out: GI
Vero [43] = experiment: Induction of necrosis in African green monkey Vero cells at 10 ug/ml after 72 hrs by fluorescence microscopic analysis; assay type: functional, cell-based; details: Chlorocebus sabaeus
T47D [44] = experiment: Induction of apoptosis in human T47D cells at 10 ug/ml after 72 hrs by fluorescence microscopic analysis; assay type: functional, cell-based
HeLa [45] = experiment: Induction of necrosis in human HeLa cells at 10 ug/ml after 72 hrs by fluorescence microscopic analysis; assay type: functional
Vero [46] = experiment: Induction of apoptosis in African green monkey Vero cells at 10 ug/ml after 72 hrs by fluorescence microscopic analysis; assay type: functional, cell-based; details: Chlorocebus sabaeus
HeLa [47] = experiment: Induction of apoptosis in human HeLa cells at 10 ug/ml after 72 hrs by fluorescence microscopic analysis; assay type: functional
T47D [48] = experiment: Induction of necrosis in human T47D cells at 10 ug/ml after 72 hrs by fluorescence microscopic analysis; assay type: functional, cell-based

Row | SMILES | inhibition at 48 h, 50 ug/ml [13] [%] | IC50 (Vero [14]) [µM] | IC50 (TOV112D [15]) [µM] | IC50 (HeLa [16]) [µM] | IC50 (HeLa [17]) [µM] | inhibition of growth at 50 µg/mL (HeLa [18]) [%] | IC50 (T47D [19]) [µM] | IC50 (HeLa [20]) [µM] | IC50 (A549 [21]) [µM] | inhibition of growth at 50 µg/mL (TOV112D [22]) [%] | inhibition of growth at 50 µg/mL (TOV112D [23]) [%] | IC50 (A549 [24]) [µM] | IC50 (TOV112D [25]) [µM] | IC50 (TOV112D [26]) [µM] | inhibition of growth at 50 µg/mL (A549 [27]) [%] | growth inhibition (GI) (Vero [28]) [%] | IC50 (Vero [29]) [µM] | inhibition of growth at 50 µg/mL (HeLa [30]) [%] | IC50 (T47D [31]) [µM] | inhibition of growth at 50 µg/mL (A549 [32]) [%] | other results
1 | Nc1nc2[nH]cc(CCc3ccc(C(=O)N[C@@H](CCC(=O)O)C(=O)O)cc3)c2c(=O)[nH]1 [PEMETREXED] | – | – | – | – | – | – | – | – | – | – | – | – | – | – | – | – | – | – | – | – | inhibition of growth at 100 µg/mL (A549 [1]): 10%; inhibition of growth at 100 µg/mL (HeLa [2]): 10%; growth inhibition (GI) (Vero [3]): 5%; inhibition of growth at 100 µg/mL (A549 [4]): 50%; inhibition of growth at 100 µg/mL (HeLa [5]): 5%; inhibition at 72 h, 100 ug/ml [6]: 20%; inhibition of growth at 100 µg/mL (T47D [7]): 20%; inhibition of growth at 100 µg/mL (T47D [8]): 10%; inhibition of growth at 100 µg/mL (HeLa [9]): 20%; inhibition of growth at 100 µg/mL (A549 [10]): 30%; inhibition at 48 h, 100 ug/ml [11]: 10%; inhibition of growth at 100 µg/mL (T47D [12]): 30%
2 | O=c1c(-c2cccs2)nnc2n1CCN2c1cccc(Cl)c1 | 100 | 80 | 80 | 80 | 80 | 100 | 80 | 80 | 80 | 90 | 100 | 80 | 80 | 80 | 100 | 100 | 80 | 90 | 80 | 100 | inhibition of growth at 50 µg/mL (T47D [33]): 100%; inhibition of growth at 50 µg/mL (T47D [34]): 100%; IC50 (A549 [35]): 80 µM; inhibition at 72 h, 50 ug/ml [36]: 100%; inhibition of growth at 50 µg/mL (A549 [37]): 90%; IC50 (T47D [38]): 80 µM; inhibition of growth at 50 µg/mL (T47D [39]): 100%; inhibition of growth at 50 µg/mL (TOV112D [40]): 100%; IC50 (Vero [41]): 80 µM; inhibition of growth at 50 µg/mL (HeLa [42]): 100%
3 | O=c1c(-c2cccs2)nnc2n1CCN2c1ccc(Cl)c(Cl)c1 | 50 | 140 | 70 | 70 | 80 | 100 | 70 | 140 | 70 | 90 | 100 | 70 | 80 | 70 | 100 | 25 | > 140 | 50 | 70 | 100 | Activity (Vero [43]): Active; Activity (T47D [44]): Active; Activity (HeLa [45]): 95%; Activity (Vero [46]): Active; Activity (HeLa [47]): 5%; inhibition of growth at 50 µg/mL (T47D [33]): 100%; Activity (T47D [48]): Active; inhibition of growth at 50 µg/mL (T47D [34]): 100%; IC50 (A549 [35]): 80 µM; inhibition at 72 h, 50 ug/ml [36]: 90%; inhibition of growth at 50 µg/mL (A549 [37]): 90%; IC50 (T47D [38]): 80 µM; inhibition of growth at 50 µg/mL (T47D [39]): 90%; inhibition of growth at 50 µg/mL (TOV112D [40]): 100%; IC50 (Vero [41]): 80 µM; inhibition of growth at 50 µg/mL (HeLa [42]): 90%
